Assays:
[1] = test system: MMP1 expression from activated SFs (RASF); experiment: MMP assay: MMP1 expression (ELISA) by TNF-α-triggered RASFs; format: cell-based; details: RASF triggered with TNFα, MMP1 ELISA after 48 hrs, semi-quantitative score
Method: A 384-well format ELISA for measurement of MMP1 is developed. Various primary antibodies are tested, as well as various ELISA protocols. The following protocol is developed and validated to measure MMP1 levels in SF supernatant in 384 well plates: white Lumitrac 600 384 well plates (Greiner) are coated with 2 μg/mL anti-MMP1 antibody MAB1346 (Chemicon). The antibody is diluted in buffer 40 (1.21 g Tris base (Sigma), 0.58 g NaCl (Calbiochem) and 5 mL 10% NaN3 (Sigma) in 1 L milliQ water and adjusted to pH 8.5). After overnight incubation at 4° C., plates are washed with PBS (80 g NaCl, 2 g KCl (Sigma), 11.5 g Na2HPO4.7H2O and 2 g KH2PO4 in 10 L milliQ; pH 7.4) and blocked with 100 μL/well Casein buffer (2% Casein (VWR International) in PBS). Next day, casein buffer is removed from ELISA plates and replaced by 50 μL/well EC buffer (4 g casein, 2.13 g Na2HPO4 (Sigma), 2 g bovine albumin (Sigma), 0.69 g NaH2PO4.H2O (Sigma), 0.5 g CHAPS (Roche), 23.3 g NaCl, 4 mL 0.5 M EDTA pH 8 (Invitrogen), 5 mL 10% NaN3 in 1 L milliQ and adjusted to pH 7.0). 0.25 mM DTT (Sigma) is added to the thawed sample plates. After removal of the EC buffer, 20 μL of sample is transferred to the ELISA plates. After overnight incubation at 4° C. plates are washed twice with PBS and once with PBST (PBS with 0.05% Tween-20 (Sigma)) and incubated with 35 μL/well biotinylated anti-MMP1 antibody solution (R&D). This secondary antibody is diluted in buffer C (0.82 g NaH2PO4.H2O, 4.82 g Na2HPO4, 46.6 g NaCl, 20 g bovine albumin and 4 ml, 0.5M EDTA pH 8 in 2 L milliQ and adjusted to pH 7.0) at a concentration of 5 μg/mL. After 2 h of incubation at RT, plates are washed as described above and incubated with 50 μL/well streptavidin-HRP conjugate (Biosource). Streptavidin-HRP conjugate is diluted in buffer C at a concentration of 0.25 μg/mL. After 45 min, plates are washed as described above and incubated for 5 min with 50 μL/well BM Chem ELISA Substrate (Roche). Readout is performed on the Luminoscan Ascent Luminometer (Labsystems) with an integration time of 200 msec or with an Envision reader (Perkin Elmer).
SFs were acquired at passage 1 from a commercial supplier (Cell applications, Inc.). SFs are cultured in DMEM supplemented with 10% heat-inactivated FBS, 1× penicillin/streptomycin (Invitrogen) at 37° C., 10% CO2 until passage 6. Aliquots of the cells are frozen and cryopreserved in liquid nitrogen. Starting from a cryopreserved aliquot, cells are further expanded by sub-culturing cells at 1/3 ratio every week. Cells between passage 10 and 12 are routinely used in compound testing according to the following protocol.
Starting from the compound master stocks (all at 10 mM concentration in 100% DMSO) a 3-fold serial dilution is made in 96-well plates in 100% DMSO. Then, plates are further diluted 45-fold in M199 medium supplemented with 1% heat-inactivated FBS to obtain a intermediate work stock.
At day 1, RASFs are seeded in 96 well plates (flat bottom, tissue culture treated, Greiner) at a density of 3000 cells/well in complete synovial growth medium (Cell Applications). Day 5, the medium is completely removed from the cells, and replaced by 81 μL of M199 medium supplemented with 1% heat-inactivated FBS followed by addition of 10 μL compound out of the intermediate work stock. After an incubation period of 90 minutes, which allows the compounds to equilibrate and enter the cells, cells are stimulated with either TNF-α or ‘complex trigger’. TNF-α trigger is added in a volume of […] to obtain final concentration of 10 ng/mL. For that, TNF-α stock (PeproTech) at 10 μg/mL was diluted to 100 ng/mL TNF-α in M199 medium supplemented with 1% FBS. ‘Complex trigger’ mix is added in a volume of 20 μL to obtain a final concentration of 12.5%. For that, ‘complex trigger’ mix, is diluted to 80% with M199 medium supplemented with 1% FBS. […]

TAK1-TAB1 fusion protein = target: T1, TAK1-TAB1 fusion protein (Homo sapiens, UniProt O43318); experiment: In vitro TAK1 kinase assay (33P-ATP, casein substrate); format: biochemical; details: semi-quantitative score, at least two independent experiments
T1 construct: purchased Upstate 14-600
T1 sequence (O43318 with tags, fused parts or gaps limits assumed): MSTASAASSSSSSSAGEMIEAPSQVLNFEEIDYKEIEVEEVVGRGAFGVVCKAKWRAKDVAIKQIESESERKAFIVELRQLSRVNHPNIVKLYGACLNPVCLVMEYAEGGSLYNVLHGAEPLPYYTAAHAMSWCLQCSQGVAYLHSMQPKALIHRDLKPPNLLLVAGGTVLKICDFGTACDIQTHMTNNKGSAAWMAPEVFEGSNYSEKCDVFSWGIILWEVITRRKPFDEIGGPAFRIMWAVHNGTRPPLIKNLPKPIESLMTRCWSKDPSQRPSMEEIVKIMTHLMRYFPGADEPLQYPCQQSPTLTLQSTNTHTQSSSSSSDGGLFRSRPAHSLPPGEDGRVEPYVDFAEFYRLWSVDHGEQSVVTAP
Method: For assessing TAK1 inhibition, active TAK1-TAB1 fusion protein was used from Upstate (Cat. No, 14-600). Kinase reactions are set up in 96-well polypropylene plates in 25 μL containing 0.5 mU TAK1-TAB1 fusion protein, […], 0.01 μCi/μL [^33P]-γ-ATP, 0.1 mg/mL casein substrate in 1× reaction buffer containing 10 mM MOPS pH 7.0, 1 mM EDTA.
Starting from the compound master stocks (all at 10 mM concentration in 100% DMSO) a 3-fold serial dilution is made in 96-well plates in 100% DMSO. Plates are further diluted […] in H2O containing 3.5% DMSO, to obtain an intermediate work stock with compounds at 5× the final assay concentration in 5% DMSO.
5 μL of the intermediate stock is transferred into V-bottom 96 well polypropylene plates and 11 μL of Enzyme mix is added. Enzyme mix is made by combining 5 μL 5× reaction buffer ([…] pH 7.0, 1 mM EDTA), 5 μL casein (Sigma) diluted in H2O to 0.5 mg/mL and 1 μL of TAK1-TAB1 fusion protein that was prediluted to 0.5 mU/μL in 1× enzyme dilution buffer (20 mM MOPS pH 7.0, 0.1 mM EDTA, 0.01% Brij-35, 5% glycerol, 1 mM DTT, 1 mg/ml BSA).
The reactions are started by the addition of 9 μL of mixture containing ATP (20.83 uM) and [^33P]-γ-ATP (0.028 μCi/μL).
The assay is stopped 90 minutes after incubation at 30° C. by the addition of 25 μL phosphoric acid (150 mM). The label incorporated into the casein substrate is separated from labeled unincorporated ATP by filtration onto 96-well filter plates using a harvester device. After 6 washes with 75 mM phosphoric acid, the bottom of the filter plates are sealed, and incorporated label is quantified after addition of 40 μL scintillation fluid using TopCount.
Based on these percent inhibition data obtained in at least two independent experiments for the compounds, compounds are ranked using semi-quantitative scores. Table A below lists a number of compounds which have been or can be prepared according to the synthetic methods described herein. Semi-quantitative score: • *>3001 nM • ** 1001-3000 nM • *** 101-1000 nM • ****<100 nM

SMILES | EC50 [1] | IC50 (TAK1-TAB1 fusion protein)
CS(=O)(=O)c1ccc(Nc2ccc(-c3ccc4c(c3)CNC4=O)n3ccnc23)cc1 [Compound 18, 5-(8-(4-(methylsulfonyl)phenylamino)imi-dazo[1,2-a]pyridin-5-yl)isoindolin-1-one] | > 3000 nM | 101 to 1000 nM
CC(C)N1CCC(c2ccc(Nc3ccc(-c4ccc5c(c4)CNC5=O)n4ccnc34)cc2)CC1 [Compound 19, 5-(8-(4-(1-isopropyl-piperidin-4-yl)phenylamino)imidazo[1,2-a]pyridin-5-yl)isoindolin-1-one] | 101 to 1000 nM | < 100 nM
CN(C)S(=O)(=O)c1ccc(Nc2ccc(-c3ccc4c(c3)CNC4=O)n3ccnc23)cc1 [Compound 20, N,N-dimethyl-4-(5-(1-oxoisoindolin-5-yl)imidazo[1,2-a]pyridin-8-ylamino)benzene sulfonamide] | 101 to 1000 nM | 101 to 1000 nM
O=C1NCc2cc(-c3ccc(Nc4ccc(S(=O)(=O)c5ccccc5)cc4)c4nccn34)ccc21 [Compound 21, 5-(8-(4-(phenylsulfonyl)phenylamino)imi-dazo[1,2-a]pyridin-5-yl)isoindolin-1-one] | 101 to 1000 nM | 101 to 1000 nM
CCN(CC)CCNS(=O)(=O)c1ccc(Nc2ccc(-c3ccc4c(c3)CNC4=O)n3ccnc23)cc1 [Compound 22, N-(2-(diethylamino)ethyl)-4-(5-(1-oxoisoindolin-5-yl)imidazo[1,2-a]pyridin-8-ylamino)benzene sulfonamide] | 1000 to 3000 nM | 101 to 1000 nM
CCN(CC)CCNC(=O)c1ccc(Nc2ccc(-c3ccc4c(c3)CNC4=O)n3ccnc23)cc1 [Compound 23, N-(2-(diethylamino)ethyl)-4-(5-(1-oxoisoindolin-5-yl)imidazo[1,2-a]pyridin-8-ylamino) benzamide] | > 3000 nM | < 100 nM
CNS(=O)(=O)c1ccc(Nc2ccc(-c3ccc4c(c3)CNC4=O)n3ccnc23)cc1 [Compound 24, N-methyl-4-(5-(1-oxoisoindolin-5-yl)imidazo[1,2-a]pyridin-8-ylamino)benzene sulfonamide] | 1000 to 3000 nM | 101 to 1000 nM
CN(C)c1ccc(CNS(=O)(=O)c2ccc(Nc3ccc(-c4ccc5c(c4)CNC5=O)n4ccnc34)cc2)cc1 [Compound 25, N-(4-(dimethylamino)benzyl)-4-(5-(1-oxoisoindolin-5-yl)imidazo[1,2-a]pyridin-8-ylamino)benzene sulfonamide] | 1000 to 3000 nM | 101 to 1000 nM
CC(C)N1CCN(c2ccc(Nc3ccc(-c4ccc5c(c4)CNC5=O)n4ccnc34)cc2F)CC1 [Compound 26, 5-(8-(3-fluoro-4-(4-isopropyl-piperazin-1-yl)phenylamino)imidazo[1,2-a]pyridin-5-yl)isoindolin-1-one] | > 3000 nM | < 100 nM
CC(C)N1CCN(c2ccc(Nc3ccc(-c4ccc5c(c4)CNC5=O)n4ccnc34)cc2C(F)(F)F)CC1 [Compound 27, 5-(8-(4-(4-isopropylpiperazin-1-yl)-3-(trifluoromethyl)phenylamino)imi-dazo[1,2-a]pyridin-5-yl)isoindolin-1-one] | > 3000 nM | 101 to 1000 nM
CCN1CCN(c2ccc(Nc3ccc(-c4ccc5c(c4)CNC5=O)n4ccnc34)cc2Cl)CC1 [Compound 28, 5-(8-(3-chloro-4-(4-ethylpiperazin-1-yl)phenylamino)imidazo[1,2-a]pyridin-5-yl)isoindolin-1-one] | > 3000 nM | 101 to 1000 nM
CC(C)N1CCN(c2ccc(Nc3ccc(-c4ccc5c(c4)CNC5=O)n4ccnc34)cc2Cl)CC1 [Compound 29, 5-(8-(3-chloro-4-(4-isopropyl-piperazin-1-yl)phenylamino)imidazo[1,2-a]pyridin-5-yl)isoindolin-1-one] | > 3000 nM | 101 to 1000 nM
O=C1NCc2cc(-c3ccc(Nc4ccc(S(=O)(=O)NC5CCNC5)cc4)c4nccn34)ccc21 (centres unmarked) [Compound 32, 4-(5-(1-oxoisoindolin-5-yl)imidazo[1,2-a]pyridin-8-ylamino)-N-(pyrrolidin-3-yl)benzene sulfonamide] | > 3000 nM | 101 to 1000 nM
CN(C)c1ccc(CNC(=O)c2ccc(Nc3ccc(-c4ccc5c(c4)CNC5=O)n4ccnc34)cc2)cc1 [Compound 33] | 101 to 1000 nM | 101 to 1000 nM
O=C(NCCN1CCCC1)c1ccc(Nc2ccc(-c3ccc4c(c3)CNC4=O)n3ccnc23)cc1 [Compound 34, 4-(5-(1-oxoisoindolin-5-yl)imidazo[1,2-a]pyridin-8-ylamino)-N-(2-(pyrrolidin-1-yl)ethyl)benzamide] | > 3000 nM | < 100 nM
CN(C)CCNC(=O)c1ccc(Nc2ccc(-c3ccc4c(c3)CNC4=O)n3ccnc23)cc1 [Compound 36, N-(2-(dimethylamino)ethyl)-4-(5-(1-oxoisoindolin-5-yl)imidazo[1,2-a]pyridin-8-ylamino)benzamide] | > 3000 nM | 101 to 1000 nM

— patent US20120010206A1, “IMIDAZOLOPYRIDINE COMPOUNDS USEFUL FOR THE TREATMENT OF DEGENERATIVE AND INFLAMMATORY DISEASES” (priority 2006, published 2012)
